# Assay results from ChEMBL document CHEMBL5523682, “The formyl peptide receptors FPR1 and FPR2 as targets for inflammatory disorders: recent advances in the development of small-molecule agonists” (Eur J Med Chem, 2024).
# Where a SMILES comes first, the peptide text is derived from it. The star is where a group is joined. For = O=C*
# Experiments:
# fMet-Leu-Phe receptor [1] = molecular target: T1, fMet-Leu-Phe receptor (Homo sapiens, UniProt P21462); assay: Agonist activity at human FPR1 transfected in CHO cells by cAMP assay; assay type: functional, cell-based
# T1 sequence (P21462 whole entry): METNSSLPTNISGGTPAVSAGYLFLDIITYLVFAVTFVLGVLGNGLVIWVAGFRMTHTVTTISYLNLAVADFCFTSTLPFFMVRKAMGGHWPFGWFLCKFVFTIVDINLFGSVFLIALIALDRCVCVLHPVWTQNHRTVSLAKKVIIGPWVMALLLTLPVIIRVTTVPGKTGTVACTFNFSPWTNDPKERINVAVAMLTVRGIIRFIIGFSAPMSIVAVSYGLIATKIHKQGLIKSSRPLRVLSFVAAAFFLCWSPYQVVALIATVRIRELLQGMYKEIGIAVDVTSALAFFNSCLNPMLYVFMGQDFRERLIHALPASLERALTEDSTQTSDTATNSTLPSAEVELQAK
# Homo sapiens = species on record: Homo sapiens; assay: Selectivity ratio of EC50 for agonist activity at human FPR1 transfected in CHO cells to EC50 for agonist activity at human FPR2 transfected in CHO cells; assay type: cell-based
# [2] = molecular target: T2, N-formyl peptide receptor 2 (Homo sapiens, UniProt P25090); assay: Agonist activity at human FPR2 expressed in CHO cells assessed as increase in calcium mobilization by Fluo-4 AM dye based fluorescence assay; assay type: functional, cell-based
# T2 sequence (P25090 whole entry): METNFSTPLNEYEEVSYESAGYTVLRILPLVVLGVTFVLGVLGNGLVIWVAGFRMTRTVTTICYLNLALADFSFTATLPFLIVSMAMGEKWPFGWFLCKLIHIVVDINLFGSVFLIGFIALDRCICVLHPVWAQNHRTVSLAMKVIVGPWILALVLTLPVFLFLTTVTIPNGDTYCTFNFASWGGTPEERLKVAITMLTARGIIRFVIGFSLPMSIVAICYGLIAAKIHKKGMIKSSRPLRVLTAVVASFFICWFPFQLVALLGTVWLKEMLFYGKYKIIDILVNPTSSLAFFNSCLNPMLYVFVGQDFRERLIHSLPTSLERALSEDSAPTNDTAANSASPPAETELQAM
# [3] = molecular target: T2, N-formyl peptide receptor 2; assay: Agonist activity at human FPR2 expressed in HL-60 cells assessed as inhibition of WKYMVM-induced calcium mobilization; assay type: functional, cell-based
# [4] = molecular target: T2, N-formyl peptide receptor 2; assay: Agonist activity at FPR2 (unknown origin) expressed in CHO cells by cAMP assay; assay type: functional, cell-based
# [5] = molecular target: T3, Formyl peptide receptor 2 (Mus musculus, UniProt O88536); assay: Agonist activity at mouse FPR2
# T3 sequence (O88536 whole entry): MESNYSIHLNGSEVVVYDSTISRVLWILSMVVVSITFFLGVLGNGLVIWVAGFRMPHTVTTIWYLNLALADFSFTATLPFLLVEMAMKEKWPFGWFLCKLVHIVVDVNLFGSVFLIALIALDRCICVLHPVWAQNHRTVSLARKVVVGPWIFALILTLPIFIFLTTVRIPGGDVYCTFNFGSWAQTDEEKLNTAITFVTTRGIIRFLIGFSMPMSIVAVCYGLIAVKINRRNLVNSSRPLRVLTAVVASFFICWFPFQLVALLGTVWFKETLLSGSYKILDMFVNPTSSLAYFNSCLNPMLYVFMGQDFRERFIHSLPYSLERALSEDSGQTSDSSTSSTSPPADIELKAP
# fMet-Leu-Phe receptor [6] = molecular target: T4, fMet-Leu-Phe receptor (Mus musculus, UniProt P33766); assay: Agonist activity at mouse FPR1; assay type: functional
# T4 sequence (P33766 whole entry): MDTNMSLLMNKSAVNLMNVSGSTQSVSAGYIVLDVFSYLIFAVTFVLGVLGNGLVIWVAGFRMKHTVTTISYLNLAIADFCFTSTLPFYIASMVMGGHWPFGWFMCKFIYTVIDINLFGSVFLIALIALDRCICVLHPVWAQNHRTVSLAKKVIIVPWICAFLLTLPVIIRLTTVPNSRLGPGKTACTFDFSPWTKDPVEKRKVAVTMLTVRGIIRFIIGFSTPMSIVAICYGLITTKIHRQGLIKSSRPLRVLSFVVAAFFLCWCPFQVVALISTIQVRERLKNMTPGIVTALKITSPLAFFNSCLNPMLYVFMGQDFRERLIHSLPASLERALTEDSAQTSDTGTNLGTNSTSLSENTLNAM
# [7] = molecular target: T2, N-formyl peptide receptor 2; assay: Agonist activity at FPR2 (unknown origin) in HEK293 cells; assay type: functional, cell-based
# fMet-Leu-Phe receptor [8] = molecular target: T1, fMet-Leu-Phe receptor; assay: Agonist activity at human FPR1 expressed in HL-60 cells assessed as increase in calcium mobilization by FLIPR analysis; assay type: functional, cell-based
# fMet-Leu-Phe receptor [9] = molecular target: T1, fMet-Leu-Phe receptor; assay: Agonist activity at FPR1 (unknown origin) in HEK293 cells; assay type: functional, cell-based; conditions: hek293
# [10] = molecular target: T2, N-formyl peptide receptor 2; assay: Agonist activity at human FPR2 expressed in HL-60 cells assessed as increase in calcium mobilization by FLIPR analysis; assay type: functional, cell-based
# [11] = molecular target: T2, N-formyl peptide receptor 2; assay: Agonist activity at FPR2 (unknown origin) transfected in CHO cells by cAMP assay; assay type: functional, cell-based
compound,measurement,setting,value
COc1cc(OC)cc(-n2c(=O)c(NC(=O)c3ccc(OC(F)F)cc3)c(-c3c(F)cc(OC)cc3F)n2C)c1,EC50,fMet-Leu-Phe receptor [1],10 nM
same,Ratio EC50,Homo sapiens,3400
CCC1(C(C)C)NC(=O)N(CC(=O)Nc2ccc(Br)cc2)C1=O (centres undefined),EC50,[2],0.5 nM
CC[C@H](C)[C@H](NC(=O)[C@H](CC(N)=O)NC(=O)[C@@H](NC(=O)[C@H](CCSC)NC=O)[C@@H](C)O)C(=O)N[C@@H](CCCNC(=N)N)C(=O)N[C@@H](CCCCN)C(=O)N[C@@H](CO)C(=O)N[C@@H](Cc1cnc[nH]1)C(=O)N1CCC[C@H]1C(=O)N[C@@H](CC(C)C)C(=O)N[C@@H](CCSC)C(=O)N[C@@H](CCCCN)C(=O)N[C@H](C(=O)N[C@H](C(=O)N[C@@H](CC(N)=O)C(=O)O)[C@@H](C)CC)[C@@H](C)CC (For-MTNIRKSHPLMKIIN-OH),EC50,[3],6.9 nM
COc1ccc([C@@H]2CN(CCO)C(=O)[C@H]2NC(=O)Nc2ccc(Cl)cc2)cc1,EC50,[4],0.01 nM
CC(C)c1c(NC(=O)Nc2ccc(Cl)cc2)c(=O)n(-c2ccccc2)n1C,EC50,[5],890 nM
same,EC50,fMet-Leu-Phe receptor [6],350 nM
O=C(CN1CCN(c2ccc(Cl)cc2)CC1)Nc1ccc(Br)cc1,EC50,[7],2100 nM
CS(=O)(=O)Nc1ccccc1-c1ccc(N2CC[C@@H](NC(=O)Nc3ccc(Cl)cc3F)C2=O)c(F)c1F,Ratio EC50,Homo sapiens,340
COc1ccc(C2(CNC(=O)[C@@H](Cc3c[nH]c4ccccc34)NC(=O)Nc3ccc([N+](=O)[O-])cc3)CCCCC2)nc1,EC50,fMet-Leu-Phe receptor [8],23 nM
COc1ccc(CC(Cc2ccc3c(c2)OCO3)NC(=O)Nc2ccc(Cl)cc2)cc1 (centres undefined),EC50,fMet-Leu-Phe receptor [8],110 nM
COc1cc(F)c(-n2c(C3CC(N)C3)cnc2NC(=O)c2ccc(OC(F)F)cc2)c(F)c1 (centres undefined),EC50,[7]; hek293,4 nM
same,EC50,fMet-Leu-Phe receptor [9],5400 nM
H-AKKVFKRLEKLFSKIQNDK-OH,EC50,[3],300 nM
COc1ccc(NC(=O)N[C@@H]2CCCN(c3ccc(-c4ccccc4C(N)=O)cc3)C2=O)cc1,EC50,[4],5 nM
COc1cccc(-c2cc(C#N)c(=O)n(CC(=O)Nc3ccc(Br)cc3)c2C)c1,EC50,[10]; hl-60,120 nM
same,EC50,fMet-Leu-Phe receptor [8]; hl-60,1600 nM
COc1cc(-n2c(=O)c(NC(=O)c3ccc(OC(F)F)cc3)c(-c3c(F)cc(OC)cc3F)n2C)cc(C(F)(F)F)c1,EC50,fMet-Leu-Phe receptor [1],> 10 nM
same,Ratio EC50,Homo sapiens,> 1300
O=C(CN1C(=O)C2C(C1=O)C1CCC2C12CC2)Nc1ccc(Br)cc1 (centres undefined),EC50,[11],120 nM
NC(=O)c1ccccc1-c1ccc(N2CCC[C@H](NC(=O)Nc3ccc(Cl)cc3)C2=O)cc1,EC50,[4],5 nM
N#Cc1ccccc1-c1ccc(N2CC[C@@H](NC(=O)Nc3ccc(Cl)cc3F)C2=O)c(F)c1F,Ratio EC50,Homo sapiens,14
COc1ccc([C@H]2CN(Cc3cnn(S(C)(=O)=O)c3)CC[C@@H]2NC(=O)Nc2ccc(Cl)cc2)cc1 (racemic),EC50,[4],0.09 nM
COc1ccc(C2(CNC(=O)[C@H](Cc3c[nH]c4ccccc34)NC(=O)Nc3ccc([N+](=O)[O-])cc3)CCCCC2)nc1,EC50,fMet-Leu-Phe receptor [8],4100 nM
CCC(Nc1ccc(OC)cc1)C(=O)N/N=C(C)/C=C/c1ccccc1 (centres undefined),EC50,[7],2600 nM
COc1cc(F)c(-c2c(NC(=O)c3ccc(OC(F)F)cc3)c(=O)n(-c3ccccc3)n2C)c(F)c1,Ratio EC50,Homo sapiens,200
O=C(Nc1ccc(Cl)cc1F)N[C@@H]1CCN(c2ccc(-c3ccccc3F)c(F)c2F)C1=O,Ratio EC50,Homo sapiens,12
CC(=O)CCCCc1nc(NC(=O)OCc2ccccc2C)co1,EC50,[7],0.3 nM
COc1cc(F)c(-c2c(NC(=O)c3ccc(OC(F)F)cc3)c(=O)n(-c3cccc(OC(F)F)c3)n2C)c(F)c1,Ratio EC50,Homo sapiens,1
O=C(Nc1ccc(Br)nc1)[C@@H]1C2CCC([C@H]1C(=O)OCCC1CCNCC1)C21CC1 (some centres undefined),EC50,[7],0.4 nM
O=C(NCCCCN1CCCCC1)[C@@H]1C2CCC([C@H]1C(=O)Nc1ccc(Br)cc1)C21CC1 (some centres undefined),EC50,[7],0.07 nM
CC[C@H](C)[C@H](NC(=O)Nc1ccc(Br)cc1F)C(=O)O,EC50,[2],87 nM
C[C@@H]1CC(c2ccccc2)=NN(CC(=O)Nc2ccc(Br)cc2)C1=O,EC50,[10],10000 nM
same,EC50,fMet-Leu-Phe receptor [8],24000 nM
